How the values were obtained:
purple nutsedge = assay: Test B pre/postemergence purple nutsedge; type: in vivo, Cyperus rotundus
How it was run: (§1)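 Herbicidal effect was estimated by eye on a ten-point control scale after plants spent twelve to sixteen days in a greenhouse following soil or foliar treatment. Foliar sprays targeted plants at one to four leaves; all doses were formulated in a non-phytotoxic solvent with surfactant.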

bedstraw = assay: Test B pre/postemergence bedstraw; type: in vivo, Galium aparine
How it was run: as §1

giant foxtail = assay: Test B pre/postemergence giant foxtail; type: in vivo, Setaria faberii
How it was run: as §1

wild oat = assay: Test B pre/postemergence wild oat; type: in vivo, Avena fatua
How it was run: as §1

corn = assay: Test B pre/postemergence corn; type: in vivo, Zea mays
How it was run: as §1

surinam grass = assay: Test B pre/postemergence surinam grass; type: in vivo, Brachiaria decumbens
How it was run: as §1

cocklebur = assay: Test B pre/postemergence cocklebur; type: in vivo, Xanthium strumarium
How it was run: as §1

blackgrass = assay: Test B pre/postemergence blackgrass; type: in vivo, Alopecurus myosuroides
How it was run: as §1

crabgrass = assay: Test B pre/postemergence crabgrass; type: in vivo, Digitaria sanguinalis
How it was run: as §1

pigweed = assay: Test B pre/postemergence pigweed; type: in vivo, Amaranthus retroflexus
How it was run: as §1

soybean = assay: Test B pre/postemergence soybean; type: in vivo, Glycine max
How it was run: as §1

morningglory = assay: Test B pre/postemergence morningglory; type: in vivo, Ipomoea hederacea
How it was run: as §1

rape = assay: Test B pre/postemergence rape; type: in vivo, Brassica napus
How it was run: as §1

velvetleaf = assay: Test B pre/postemergence velvetleaf; type: in vivo, Abutilon theophrasti
How it was run: as §1

wheat = assay: Test B pre/postemergence wheat; type: in vivo, Triticum aestivum
How it was run: as §1

[1] = Postemergence, Rate 125 g/ha, scale of 0 to 10 where 0 is no effect and 10 is complete control
[2] = Preemergence, Rate 62 g/ha, scale 0 to 10 (0 no effect, 10 complete control)
[3] = Preemergence, Rate 125 g/ha, 0 is no effect, 10 is complete control
[4] = Preemergence, Rate 250 g/ha, scale 0 to 10, 0 is no effect, 10 is complete control
[5] = Preemergence, Rate 500 g/ha, scale 0 to 10 (0 no effect, 10 complete control)
[6] = Rate 62 g/ha, Postemergence, scale of 0 to 10 where 0 is no effect and 10 is complete control
[7] = Rate 250 g/ha, Postemergence, scale 0 to 10, 0 is no effect, 10 is complete control
[8] = Rate 500 g/ha, Postemergence, scale 0 to 10

CC(C)N(C(=O)n1oc(=O)n(C(C)C)c1=O)c1ccc(F)cc1 [Compound 131]
Nutsedge plant response rating (purple nutsedge; [1]): 0 | Nutsedge plant response rating (purple nutsedge; [2]): 0 | Nutsedge plant response rating (0 to 10 scale) (purple nutsedge; [3]): 0 | Nutsedge plant response rating (purple nutsedge; [4]): 0 | Nutsedge plant response rating (purple nutsedge; [5]): 0 | Nutsedge plant response rating (purple nutsedge; [6]): 0 | Plant response rating, Nutsedge (purple nutsedge; [7]): 0 | Nutsedge plant response rating (purple nutsedge; [8]): 2 | Bedstraw plant response rating (bedstraw; [1]): 8 | Bedstraw plant response rating (0 to 10 scale) (bedstraw; [3]): 10 | Bedstraw plant response rating (bedstraw; [4]): 10 | Bedstraw plant response rating (bedstraw; [5]): 10 | Bedstraw plant response rating (bedstraw; [6]): 7 | Plant response rating, Bedstraw (bedstraw; [7]): 9 | Bedstraw plant response rating (bedstraw; Rate 500 g/ha, Postemergence, scale 0 to 10, 0 no effect, 10 complete control): 9 | Giant foxtail plant response rating (giant foxtail; [1]): 8 | Giant foxtail plant response rating (giant foxtail; [2]): 10 | Giant foxtail plant response rating (0 to 10 scale) (giant foxtail; [3]): 10 | Giant foxtail plant response rating (giant foxtail; [4]): 10 | Giant foxtail plant response rating (giant foxtail; [5]): 10 | Giant foxtail plant response rating (giant foxtail; [6]): 8 | Plant response rating, Giant foxtail (giant foxtail; [7]): 9 | Giant foxtail plant response rating (giant foxtail; [8]): 9 | Wild oats plant response rating (wild oat; [1]): 3 | Wild oats plant response rating (wild oat; [2]): 10 | Wild oats plant response rating (0 to 10 scale) (wild oat; [3]): 10 | Wild oats plant response rating (wild oat; [4]): 10 | Wild oats plant response rating (wild oat; [5]): 10 | Wild oats plant response rating (wild oat; [6]): 2 | Plant response rating, Wild oats (wild oat; [7]): 9 | Wild oats plant response rating (wild oat; [8]): 10 | Corn plant response rating (corn; [1]): 5 | Corn plant response rating (corn; [2]): 0 | Corn plant response rating (0 to 10 scale) (corn; [3]): 5 | Corn plant response rating (corn; [4]): 9 | Corn plant response rating (corn; [5]): 10 | Corn plant response rating (corn; [6]): 3 | Plant response rating, Corn (corn; [7]): 6 | Corn plant response rating (corn; [8]): 7 | B. signalgrass plant response rating (surinam grass; [1]): 5 | B. signalgrass plant response rating (surinam grass; [2]): 7 | B. signalgrass plant response rating (0 to 10 scale) (surinam grass; [3]): 8 | B. signalgrass plant response rating (surinam grass; [4]): 8 | B. signalgrass plant response rating (surinam grass; [5]): 9 | B. signalgrass plant response rating (surinam grass; [6]): 4 | Plant response rating, B. signalgrass (surinam grass; [7]): 8 | B. signalgrass plant response rating (surinam grass; Rate 500 g/ha, Postemergence, scale of 0 to 10 where 0 is no effect and 10 is complete control): 9 | Cocklebur plant response rating (cocklebur; [1]): 3 | Cocklebur plant response rating (cocklebur; [2]): 0 | Cocklebur plant response rating (0 to 10 scale) (cocklebur; [3]): 0 | Cocklebur plant response rating (cocklebur; [4]): 2 | Cocklebur plant response rating (cocklebur; [5]): 2 | Cocklebur plant response rating (cocklebur; [6]): 2 | Plant response rating, Cocklebur (cocklebur; [7]): 5 | Cocklebur plant response rating (cocklebur; [8]): 5 | Blackgrass plant response rating (blackgrass; [1]): 8 | Blackgrass plant response rating (blackgrass; [2]): 10 | Blackgrass plant response rating (0 to 10 scale) (blackgrass; [3]): 10 | Blackgrass plant response rating (blackgrass; [4]): 10 | Blackgrass plant response rating (blackgrass; [5]): 10 | Blackgrass plant response rating (blackgrass; [6]): 8 | Plant response rating, Blackgrass (blackgrass; [7]): 8 | Blackgrass plant response rating (blackgrass; [8]): 9 | Crabgrass plant response rating (crabgrass; [1]): 7 | Crabgrass plant response rating (crabgrass; [2]): 2 | Crabgrass plant response rating (0 to 10 scale) (crabgrass; [3]): 7 | Crabgrass plant response rating (crabgrass; [4]): 9 | Crabgrass plant response rating (crabgrass; [5]): 10 | Crabgrass plant response rating (crabgrass; [6]): 5 | Plant response rating, Crabgrass (crabgrass; [7]): 8 | Crabgrass plant response rating (crabgrass; [8]): 9 | Redroot pigweed plant response rating (pigweed; [1]): 6 | Redroot pigweed plant response rating (pigweed; [2]): 7 | Redroot pigweed plant response rating (0 to 10 scale) (pigweed; [3]): 10 | Redroot pigweed plant response rating (pigweed; [4]): 10 | Redroot pigweed plant response rating (pigweed; [5]): 10 | Redroot pigweed plant response rating (pigweed; [6]): 2 | Plant response rating, Redroot pigweed (pigweed; [7]): 8 | Redroot pigweed plant response rating (pigweed; [8]): 10 | Soybean plant response rating (soybean; [1]): 7 | Soybean plant response rating (soybean; [2]): 2 | Soybean plant response rating (0 to 10 scale) (soybean; [3]): 3 | Soybean plant response rating (soybean; [4]): 8 | Soybean plant response rating (soybean; [5]): 8 | Soybean plant response rating (soybean; [6]): 5 | Plant response rating, Soybean (soybean; [7]): 8 | Soybean plant response rating (soybean; [8]): 8 | Morningglory plant response rating (morningglory; [1]): 7 | Morningglory plant response rating (morningglory; [2]): 3 | Morningglory plant response rating (0 to 10 scale) (morningglory; [3]): 3 | Morningglory plant response rating (morningglory; [4]): 5 | Morningglory plant response rating (morningglory; [5]): 7 | Morningglory plant response rating (morningglory; [6]): 7 | Plant response rating, Morningglory (morningglory; [7]): 8 | Morningglory plant response rating (morningglory; [8]): 10 | Rape plant response rating (rape; [1]): 4 | Rape plant response rating (rape; [2]): 8 | Rape plant response rating (0 to 10 scale) (rape; [3]): 10 | Rape plant response rating (rape; [4]): 10 | Rape plant response rating (rape; [5]): 10 | Rape plant response rating (rape; [6]): 1 | Plant response rating, Rape (rape; [7]): 7 | Rape plant response rating (rape; [8]): 9 | Velvetleaf plant response rating (velvetleaf; [1]): 7 | Velvetleaf plant response rating (velvetleaf; [2]): 7 | Velvetleaf plant response rating (0 to 10 scale) (velvetleaf; [3]): 8 | Velvetleaf plant response rating (velvetleaf; [4]): 9 | Velvetleaf plant response rating (velvetleaf; [5]): 10 | Velvetleaf plant response rating (velvetleaf; [6]): 0 | Plant response rating, Velvetleaf (velvetleaf; [7]): 8 | Velvetleaf plant response rating (velvetleaf; [8]): 8 | Wheat plant response rating (wheat; [1]): 3 | Wheat plant response rating (wheat; [2]): 2 | Wheat plant response rating (0 to 10 scale) (wheat; [3]): 8 | Wheat plant response rating (wheat; [4]): 8 | Wheat plant response rating (wheat; [5]): 10 | Wheat plant response rating (wheat; [6]): 3 | Plant response rating, Wheat (wheat; [7]): 5 | Wheat plant response rating (wheat; [8]): 6

Reference: patent US6737383B1, “Herbicidal oxadiazolidines” (priority 1999, dated 2004)
